Data set [1] concerns miR-221/222. Put plainly: miR-221 and miR-222 levels in injured femoral arteries by quantitative real-time PCR. The data set is classed as in vivo. To be noted: diabetic mice; Pluronic gel on injured femoral artery; 7 days. Here is the method:
FIG. 7. Diabetes induces an increase in miR-221/222 levels in arteries. Total RNA was prepared from injured femoral arteries of diabetic and non-diabetic mice receiving a Pluronic gel containing either control oligonucleotide (NT) or 2′OMe-miR-222 (AS) for 7 days. Levels of miR-221 and miR-222 were measured using quantitative real-time PCR with U6 as a loading control. Data is normalized to the ND. Data represent the mean±SEM and † indicates p<0.05 by ANOVA using Tukey's HSD.

The test system of a further data set is p27^Kip1. Put plainly: p27Kip1 protein ELISA in injured femoral arteries. It is filed as in vivo. To be noted: diabetic mice; Pluronic gel on injured femoral artery; 7 days. Here is the method: FIG. 9. Diabetes induces an increase in miR-221/222 that reduces p27^Kip1 levels in arteries Protein lysates were prepared from injured femoral arteries of diabetic and non-diabetic mice receiving a Pluronic gel containing either control oligonucleotide (NT) or 2′OMe-miR-222 (AS) after 7 days. Levels of p27^Kip1 protein levels were measured using an ELISA kit. Data is normalized to the ND. Data represent the mean±SEM and † indicates p<0.05 by ANOVA using Tukey's HSD.

Data set [2] concerns diabetic and non-diabetic mice. Nature of the data set: Femoral artery wire injury, neointima formation / intimal thickening. It is filed as in vivo. How it is done:
FIG. 1. Neointimal hyperplasia is increased in an mTOR-independent manner in diabetic mice. Femoral artery wire injury was performed in the mice in diabetic mice (DM) and non-diabetic mice […] and neointima formation was assessed at 14 days post-injury. […] Data represent the mean±SEM. † indicates p<0.05 by ANOVA with Tukey's HSD.
FIG. 10. Diabetes induces an increase in miR-221/222 that increases intimal thickening. Intimal thickening was measured in the wire injured femoral arteries of diabetic and non-diabetic mice receiving a Pluronic gel containing either control oligonucleotide (NT) or 2′OMe-miR-222 (AS) after 14 days. Data represent the mean±SEM and † indicates p<0.05 by ANOVA using Tukey's HSD.
FIG. 14. […] Mean intima:media ratios of ND and DM mice following femoral artery wire injury and implantation of a Pluronic-F 127 gel containing either vehicle or rapamycin (100 μg) with and without administration of the ERK pathway inhibitor, U0126 (7.5 mg/kg/d). Bars indicate p<0.05 by ANOVA.

In data set [3] the test system is miR-221/222. Particulars: diabetic mice; 3 d post-injury or sham. How it is done:
FIG. 6. […] Femoral artery wire injury or sham procedure was performed in the non-diabetic (ND) and diabetic (DM) mice and miR-221 levels were measured 3d post-injury. A group of MF-12 mice (Sham+EI) received a MEK1 inhibitor (U0126, […]). Data represent the mean±SEM.

For data set [4], the system named is miR-221/222. Nature of the data set: miR-221/222 levels in VSMCs incubated with AMPK agonist. The data set is classed as cell-based. To be noted: VSMCs from diabetic mice; 3 h incubation. How it is done: FIG. 11. The increase in miR-221/222 in VSMCs from the DM mice is reversed by AMPK activation. miR-221/222 levels were measured in VSMCs from non-diabetic and diabetic mice incubated with vehicle (Con) and the AMPK agonist, Metformin (Met) for 3 h. Data represent the mean±SEM.
FIG. 12. The increase in miR-221/222 in VSMCs from the DM mice is reversed by AMPK activation. miR-221/222 levels were measured in VSMCs from non-diabetic and diabetic mice incubated with vehicle (Con) and the AMPK agonist, AICAR for 3 h. Data represent the mean±SEM.

The test system of data set [5] is miR-221/222. Nature of the data set: miR-221/222 levels in internal mammary arteries of coronary artery bypass patients by real-time PCR. It is filed as in vivo, human. To be noted: diabetic patients currently taking metformin (DMMet+), coronary artery bypass surgery. How it is done: FIG. 13. miR-221/222 are reduced in the vasculature of diabetic patients taking the AMPK agonist metformin. miR-221/222 levels were measured using real-time PCR methods in the internal mammary arteries of non-diabetic (ND), diabetic subjects currently taking metformin (DMMet+), and diabetic subjects not taking metformin (DMMet−) undergoing coronary artery bypass surgery. […] Data represent the mean±SEM.

The next data set concerns p27^Kip1 mRNA. Put plainly: Half-life of p27Kip1 mRNA in serum-stimulated VSMCs. It is filed as cell-based. To be noted: VSMCs from diabetic mice stimulated with serum. How it is done:
FIG. 4. Increased ERK activation promotes loss of p27^Kip1 in diabetic mice. A) The ratio of phosphorylated (active) ERK to total ERK in the aortae of non-diabetic (ND) mice and diabetic mice receiving either vehicle (DM) or the ERK pathway inhibitor (DM+EI) U0126, ip, 7.5 mg/kg/d for 3 days). p27^Kip1 protein (B) and mRNA (C) levels in the same mice as in A. D and E) The half-life of p27^Kip1 mRNA in VSMCs from DM and ND mice stimulated with serum with and without the ERK pathway inhibitor PD98059 (D,PD) or siRNA targeting ERK (E, ERK siRNA). † indicate p<0.05 by ANOVA (B and D) or Student's t-test (E and F).

The next data set concerns non-diabetic animals. To be noted: previous reports (9); cited from earlier work.

Entries after “also recorded” stand apart in the source; their conditions may differ.

Regarding “2′OMe-miR-222: silencing RNA, 2′-O-methylated, directly inhibiting miR-221/222; sequence 5′-ACCCAGUAGCCAGAUGUAGCU-3′ (likely SEQ ID NO 4) (all 2'-O-methyl, backbone not given here)”, the “miR-221/222 levels in the vasculature” value in the data set on miR-221/222 [1] is given as “reduces miR-221/222 levels back to normal”. In the data set on p27^Kip1, the p27Kip1 protein levels entry is listed as “restores levels of p27^Kip1 protein to normal levels”. The intimal thickening result in data set [2] (diabetic mice, Pluronic gel on wire injured femoral artery, 14 days) is reported as “effective at reducing intimal thickening in the diabetic mice to levels similar to that of normal mice”.
Turning to `N#CC(=C(/N)Sc1ccccc1N)/C(C#N)=C(\N)Sc1ccccc1N` [U0126], the “increase in miR-221/222 levels in the vasculature” value in the data set with miR-221/222 [3] is listed as “blocked”. In data set [2] (diabetic mice, U0126 7.5 mg/kg/d), the “intimal hyperplasia following wire injury” value is given as “reduces intimal hyperplasia”. In data set [2] (diabetic mice, U0126 7.5 mg/kg/d co-administered with local rapamycin 100 μg, 7.5 mg/kg/day), the “sensitivity of intimal thickening to rapamycin” value is “restores sensitivity to rapamycin; also recorded: restores the ability of rapamycin to intimal thickening”. For the same molecule, the “intimal thickening (intima:media ratio)” value in data set [2] (non-diabetic mice, U0126 7.5 mg/kg/d co-administered with local rapamycin) is “minimal effects”.
Turning to `CN(C)C(=N)N=C(N)N` [metformin], the “miR-221/222 levels in VSMCs” value with miR-221/222 [4] is “effective in reducing miR-221/222 in the VSMCs from diabetic mice to levels similar to VSMCs from non-diabetic mice”. For the same molecule, the “miR-221/222 levels in internal mammary arteries” value in the data set on miR-221/222 [5] was “normal levels”.
Take `NC(=O)c1ncn([C@@H]2O[C@H](CO)[C@@H](O)[C@H]2O)c1N` [AICAR]: in the data set on miR-221/222 [4], the “miR-221/222 levels in VSMCs” value is recorded as “effective in reducing miR-221/222 in the VSMCs from diabetic mice to levels similar to VSMCs from non-diabetic mice”.
Turning to `COc1cccc(-c2cc(=O)c3ccccc3o2)c1N` [PD98059], the “accelerated degradation (half-life) of p27Kip1 mRNA” value in the data set on p27^Kip1 mRNA was “effective at blocking the accelerated degradation”. Besides, the “cell proliferative aspect of intimal thickening following arterial injury” value with non-diabetic animals is “not effective”.

Source of the values: patent US9522130B2, “Use of miR-221 and 222 lowering agents to prevent cardiovascular disease in diabetic subjects” (priority 2013, dated 2016).
